Source: ChEMBL document CHEMBL3638739, “Medical composition for treatment or prophylaxis of glaucoma” (2014)

Molecular target: Prostaglandin E2 receptor EP2 subtype (Homo sapiens, UniProt P43116)
Assay: Binding Assay: Measurement of EP2 receptor binding affinity was carried out according to the method of Abramovitz et al. (Biochimica et Biophysica Acta, 1483, 285 (2000)). […] The membrane fraction was recovered on glass fiber filter paper (GF/B, available from Whatman PLC) using a cell harvester (M30R, available from Brandel Inc.), and after washing with a buffer solution (10 mM MES-KOH (pH 6.0), 10 mM MgCl2), radioactivity was measured with a liquid scintillation analyzer (2000CA, available from Packard).
Format: cell membranes
Conditions: hek293

Prostaglandin E2 receptor EP2 subtype, sequence (P43116 whole entry): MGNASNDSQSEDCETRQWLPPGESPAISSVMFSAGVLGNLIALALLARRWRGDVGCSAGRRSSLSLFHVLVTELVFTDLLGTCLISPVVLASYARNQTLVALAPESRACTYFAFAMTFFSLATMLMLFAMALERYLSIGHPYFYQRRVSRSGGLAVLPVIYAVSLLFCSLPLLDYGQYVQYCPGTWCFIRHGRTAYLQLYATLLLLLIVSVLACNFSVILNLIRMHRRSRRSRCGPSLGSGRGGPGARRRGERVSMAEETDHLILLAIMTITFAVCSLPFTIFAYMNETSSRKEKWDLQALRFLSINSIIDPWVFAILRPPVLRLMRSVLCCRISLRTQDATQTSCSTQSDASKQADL

| Structure (SMILES) | Ki [nM] |
| --- | --- |
| COc1ccc(-c2cc(-c3ccccc3)[nH]c2C(=O)Nc2ccc(C(=O)NO)o2)cc1 | 3.1 |
| O=C(NO)c1ccc(CNC(=O)c2[nH]c(-c3ccccc3)cc2-c2ccc(F)cc2)o1 | 1.5 |
| O=C(NO)c1ccc(CNC(=O)c2[nH]c(-c3ccoc3)cc2-c2ccc(F)cc2)cc1 | 1.1 |
| O=C(NO)c1ccc(CNC(=O)c2[nH]c(-c3cccs3)cc2-c2ccc(O)cc2)cc1 | 13 |
| O=C(O)c1[nH]c(-c2ccoc2)cc1-c1ccc(O)cc1 | 2.8 |
| COC(=O)c1ccc(CNC(=O)c2[nH]c(-c3cccs3)cc2-c2ccc(F)cc2)nc1 | 3.8 |
| O=C(NO)c1ccc(CNC(=O)c2[nH]c(-c3ccc(O)cc3)cc2-c2ccoc2)cc1 | 9.4 |
